In patent publication US20180185305A1, “An Amino Thiol for Use in the Treatment of an Infection Caused by the Bacterium Mycobacterium Spp” (NOVABIOTICS LIMITED, priority 2015, published 2018):

How the values were obtained:
Type in all cases: cell-based
[1] = system: Mycobacterium abscessus; assay: Antimicrobial susceptibility of M. abscessus isolates, CLSI broth microdilution (MIC100); details: for MIC: Mycobacteroides abscessus
Procedure: (§1) Mycobacterium absessus complex (MAC) was isolated from three participating patients. The susceptibility of these isolates, plus the MAC type strain M. abscessus DSMZ44196 to the antimicrobial effects of cysteamine alone and cysteamine combined with antibiotics employed in MAC eradication strategies, (amikacin, azithromycin and meropenem) was assessed by CLSI broth microdilution procedure [CLSI, 2012] and checkerboard assay respectively.

[2] = system: polymicrobial load in CF sputum; assay: Effect of cysteamine and antibiotics on CF sputum microbial burden: single exposure; details: overall over 4 and 24 h exposure; for reduction of polymicrobial load: cysteamine 1 mg/ml
Procedure: Sputum samples were processed for antimicrobial activity within 4 h of collection. To assess the antimicrobial impact of cysteamine alone and cysteamine in conjunction with antibiotics commonly used to treat infective exacerbations of CF lung disease, 0.2 ml of each sputum sample sputum was diluted ten fold in sterile phosphate buffered saline (PBS) and vortexed. Aliquots (0.2 ml) of the homogenised diluted sample were exposed to cysteamine only (1 mg/ml), [ ] antibiotic (tobramycin [0.1 mg/ml] or ciprofloxacin, [0.1 mg/ml] only, cysteamine plus antibiotic or vehicle (PBS) only, for 4 and 24 h at 37° C. Sputum samples were then serially diluted 10-fold (1×10^−1 to 1×10^−8) and spread-plated on non-selective nutrient agar plates. Cultures were incubated at 37° C. and cfu/ml of bacteria quantified at 48 h.
FEV1 was expressed as a percentage of predicted using GLI 2012 reference equations. Sputum microbial load expressed as colony forming units approximated to a log-normal distribution and was therefore logarithmically transformed to base 10. Microbial load after incubation with cysteamine, tobramycin, ciprofloxacin after 4 and 24 hours was modelled using two way repeated measures ANOVA with post hoc testing using Bonferroni adjustment. Analyses were performed using IBM SPSS Statistics for Windows, v22.0 (Armonk, N.Y.).

[3] = system: Mycobacterium abscessus; assay: Checkerboard assay of cysteamine combined with antibiotics, fractional inhibitory concentration index
Procedure: The Fractional Inhibitory Concentration (FIC) corresponds to an interaction coefficient indicating whether the combination of antimicrobial agents is synergistic, additive, antagonist or neutral. The FIC is determined by comparing the activity of an agent in combination (MIC of agent A+agent B) with the activity of the agent alone (MIC of agent A or agent B) as follow (Singh et al., 2000):
FIC=MICA[combition]/MICA[alone]+MICB[combination]/MICB[alone]
Additive combinations of two antimicrobial agents are indicated by a FIC index of 1, whereas a FIC index <1 indicates synergistic combinations. Neutral combinations would give a FIC between 1 and 4, a FIC index higher than 4 indicates antagonist effects between the two antimicrobial agents.
as §1

[4] = DSM44196, strain DSM44196 (type)
[5] = nine samples, ciprofloxacin 0.1 mg/ml
[6] = 23 samples, tobramycin 0.1 mg/ml, mean (95% CI)

NCC[C@H](O)C(=O)N[C@@H]1C[C@H](N)[C@@H](O[C@H]2O[C@H](CN)[C@@H](O)[C@H](O)[C@H]2O)[C@H](O)[C@H]1O[C@H]1O[C@H](CO)[C@@H](O)[C@H](N)[C@H]1O [Amikacin] was tested, and the MIC [1, 4] was 4 to 8 µg/mL, the MIC ([1]; strain MR27419N (clinical)) was 16 µg/mL and the MIC ([1]; strain MR313292 (clinical)) was 4 µg/mL. For the same compound, the MIC ([1]; strain MR313367D (clinical)) was 16 µg/mL.

With CC[C@H]1OC(=O)[C@H](C)[C@@H](O[C@H]2C[C@@](C)(OC)[C@@H](O)[C@H](C)O2)[C@H](C)[C@@H](O[C@@H]2O[C@H](C)C[C@H](N(C)C)[C@H]2O)[C@](C)(O)C[C@@H](C)CN(C)[C@H](C)[C@@H](O)[C@]1(C)O [Azithromycin] the MIC [1, 4] was 1 to 2 µg/mL, the MIC ([1]; strain MR27419N (clinical)) was 1 µg/mL and the MIC ([1]; strain MR313292 (clinical)) was 8 µg/mL. For the same compound, the MIC ([1]; strain MR313367D (clinical)) was 1 µg/mL.

In the case of O=C(O)c1cn(C2CC2)c2cc(N3CCNCC3)c(F)cc2c1=O [Ciprofloxacin], the “reduction of polymicrobial load” value [2, 5] was 0.84 log10 units.

With NCCS [Cysteamine, cysteamine] the “effect of cysteamine on the impact of amikacin (by FICI)” value ([3]; clinical and type strains) was “potentiated the impact of amikacin in both clinical and type strains”, the “effect of cysteamine on the impact of azithromycin (by FICI)” value ([3]; clinical and type strains) was “azithromycin in all but one clinical strain” and the “effect of cysteamine on meropenem sensitivity” value ([3]; clinical isolates and type strain) was “showing some concentration-specific antagonism”. The MIC range ([1]; M. abscessus isolated from three study subjects) was 62.5 to 250 µg/mL, the MIC [1, 4] was 62.5 to 125 µg/mL and the MIC ([1]; strain MR27419N (clinical)) was 125 µg/mL. For the same compound, the MIC ([1]; strain MR313292 (clinical)) was 125 to 250 µg/mL, the MIC ([1]; strain MR313367D (clinical)) was 62.5 to 125 µg/mL and the “reduction of polymicrobial load” value [2, 6] was 3.18 (2.30-4.07) log10 units. For the same compound, the “further reduction of polymicrobial load compared with tobramycin” value ([2]; 23 samples) was 1.76 log10 units, the “reduction of polymicrobial load” value [2, 5] was 2.76 log10 units and the “further reduction of polymicrobial load compared with ciprofloxacin” value ([2]; nine samples) was 1.92 log10 units.

With C[C@@H](O)[C@H]1C(=O)N2C(C(=O)O)=C(S[C@@H]3CN[C@H](C(=O)N(C)C)C3)[C@H](C)[C@H]12 [Meropenem] the MIC [1, 4] was 64 µg/mL, the MIC ([1]; strain MR27419N (clinical)) was 64 µg/mL and the MIC ([1]; strain MR313292 (clinical)) was 16 to 64 µg/mL. For the same compound, the MIC ([1]; strain MR313367D (clinical)) was 16 to 64 µg/mL.

For NC[C@H]1O[C@H](O[C@H]2[C@H](O)[C@@H](O[C@H]3O[C@H](CO)[C@@H](O)[C@H](N)[C@H]3O)[C@H](N)C[C@@H]2N)[C@H](N)C[C@@H]1O [Tobramycin], the “reduction of polymicrobial load” value [2, 6] was 1.42 (95% CI 0.92-1.92) log10 units.
